Data on 5 molecules can be found in article PMC6121307, “Cloning and Functional Characterisation of the Duplicated RDL Subunits from the Pea Aphid, Acyrthosiphon pisum” (International Journal of Molecular Sciences, 2018).

Molecules are shown by their SMILES. Read-outs that look alike come from different tables or passages of the source.

For experiment [1], the target named is T1, Apisum RDL1ad (Acyrthosiphon pisum, UniProt A0A385J708).
T1 sequence (A0A385J708 33-567): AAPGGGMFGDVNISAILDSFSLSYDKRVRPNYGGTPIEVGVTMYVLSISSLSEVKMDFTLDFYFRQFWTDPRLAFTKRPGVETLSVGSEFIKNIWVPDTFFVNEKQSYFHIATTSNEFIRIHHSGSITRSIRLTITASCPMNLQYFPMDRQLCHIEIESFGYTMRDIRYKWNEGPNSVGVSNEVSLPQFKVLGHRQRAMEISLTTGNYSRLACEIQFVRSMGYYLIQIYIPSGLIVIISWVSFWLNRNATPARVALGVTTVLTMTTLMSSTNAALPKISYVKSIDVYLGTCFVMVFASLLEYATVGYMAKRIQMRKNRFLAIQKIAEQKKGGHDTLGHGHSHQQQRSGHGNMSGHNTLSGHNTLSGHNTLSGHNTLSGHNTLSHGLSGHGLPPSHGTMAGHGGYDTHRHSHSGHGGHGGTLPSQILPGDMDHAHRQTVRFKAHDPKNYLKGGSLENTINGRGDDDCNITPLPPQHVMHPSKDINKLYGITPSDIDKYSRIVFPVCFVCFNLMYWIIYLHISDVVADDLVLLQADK
Nature of the experiment: Antagonistic actions of neonicotinoids on GABA-induced currents, two-electrode voltage-clamp in X. laevis oocytes. In kind it is cell-based. Conditions: for activity at 100 µM: read-out: % of GABA Response with 100 μM neonicotinoid. The method, then:
(§1) Functional studies of Apisum RDL1ad, Apisum RDL1bd and Apisum RDL2b variant 1 were performed using the X. laevis expression system and two-electrode voltage-clamp electrophysiology. Stage V and VI X. laevis oocytes were harvested and rinsed with Ca^2+ free solution (82 mM NaCl, 2 mM KCl, 2 mM MgCl2, 5 mM HEPES, pH 7.4), before defolliculating with 1 mg/mL type IA collagenase (Sigma, St. Louis, MO, USA) in Ca^2+ free solution. Defolliculated oocytes were injected with 2.3 ng (23 nL) Apisum Rdl plasmid DNA into the nucleus of the oocyte and stored in standard Barth’s solution (supplemented with 50 µg/mL neomycin and 10 µg/mL penicillin/streptomycin) at 17.5 °C.
(§2) Oocytes 1–7 days post-injection were placed in a recording chamber and clamped at −60 mV with 3 M KCl filled borosilicate glass electrodes (resistance 0.5–5 MΩ) and an Oocyte Clamp OC-725C amplifier (Warner Instruments, CT, USA). Responses were recorded on a flatbed chart recorder (Kipp & Zonen BD-11E, Delft, The Netherlands). Oocytes were perfused with standard oocyte saline (SOS; 100 mM NaCl, 2 mM KCl, 1.8 mM CaCl2, 1 mM MgCl2, 5 mM HEPES, pH 7.6) at a flow rate of 10 mL/min. Oocytes were selected for experiments if stable after three or more consecutive challenges of GABA at EC50 concentration. The GABA EC50 concentration was determined using GABA concentration response curves, which were generated by challenging oocytes to increasing concentrations of GABA in SOS, with 3 min between challenges. Curves were calculated by normalising the GABA current responses to maximal responses induced by GABA before and after application.
(§3) Insecticides were initially diluted in dimethylsulphoxide (DMSO), before diluting to final concentrations in SOS.
(§4) For measuring the antagonistic actions of neonicotinoids, oocytes were initially incubated with a perfusion of the neonicotinoid in SOS for 6 min, before challenging with a combination of neonicotinoid and either the respective EC50 GABA concentration or 1 mM GABA.
In general terms: Two-electrode voltage clamp holds a large cell at a set potential and records current.

For experiment [2], the target named is T2, Apisum RDL1bd (Acyrthosiphon pisum, UniProt A0A385J708).
T2 sequence (A0A385J708 33-567): T1 sequence (A0A385J708 33-567)
The description is as above. The experiment is classed as cell-based. As to conditions: for effect on responses induced by GABA: 100 μM neonicotinoid. How it is done:
as §1, §2, §3, §4

Experiment [3] concerns the target T1, Apisum RDL1ad. The experiment is described as follows: Fipronil inhibition of GABA EC50 induced currents, two-electrode voltage-clamp in X. laevis oocytes. Conditions: GABA at EC50 (20 μM); 3 min pre-incubation; mean ± SEM. The experiment is classed as cell-based. The method, then: as §1, §2
(§5) Insecticides were initially diluted in dimethylsulphoxide (DMSO), before diluting to final concentrations in SOS. […]
(§6) Data are presented as mean ± SEM of individual oocytes from three or more separate frogs. […] Statistical significance was determined as p < 0.05, performed using one-way ANOVA (Graphpad Software, CA, USA).

Experiment [4] has as its target T2, Apisum RDL1bd. The experiment is described as above. In kind it is cell-based. As to conditions: GABA at EC50 (50 μM); 3 min pre-incubation; mean ± SEM. The method, then: as §1, §2, §5, §6
Experiment [5] concerns the target T3, Apisum RDL2b variant 1 (Acyrthosiphon pisum, UniProt A0A385J709). Described as above. The experiment is classed as cell-based. As to conditions: GABA at EC50 (30 μM); 3 min pre-incubation; mean ± SEM. The method, then: as §1, §2, §5, §6
The target of experiment [6] is T1, Apisum RDL1ad. The experiment is described as follows: GABA concentration response, two-electrode voltage-clamp in X. laevis oocytes. In kind it is cell-based. How it is done:
as §1, §2
(§7) Data are presented as mean ± SEM of individual oocytes from three or more separate frogs. The concentration of GABA required to evoke 50% of the maximum response (EC50), the concentration of fipronil required to inhibit 50% of the maximal GABA response (IC50), and the Hill coefficient (nH) were determined by non-linear regression using Graphpad Prism 5 (Graphpad Software, CA, USA). Statistical significance was determined as p < 0.05, performed using one-way ANOVA (Graphpad Software, CA, USA).

Experiment [7] addresses T2, Apisum RDL1bd. The description is as above. In kind it is cell-based. How it is done:
as §1, §2, §7

For experiment [8], the target named is T3, Apisum RDL2b variant 1. Described as above. The experiment is classed as cell-based. How it is done: as §1, §2, §7
For experiment [9], the system named is An. gambiae RDL. The arrangement: method as in PMID 26296809. Conditions: 100 μM; expressed in Xenopus oocytes; cited from earlier work.
Experiment [10] deals with A. mellifera RDL. The arrangement: method as in PMID 27288983. Conditions: 100 μM; expressed in Xenopus oocytes; cited from earlier work.
For experiment [11], the system named is cultured honey bee Kenyon cells. The arrangement: method as in PMID 11872245. Conditions: cited from earlier work.
In experiment [12] the test system is Apisum RDL2b var 1. Nature of the experiment: Antagonistic actions of neonicotinoids on GABA-induced currents, two-electrode voltage-clamp in X. laevis oocytes. In kind it is cell-based, Acyrthosiphon pisum. How it is done: as §1
as §2, with “The GABA EC50 concentration was determined using GABA concentration response curves, which were generated by challenging oocytes to increasing concentrations of GABA in SOS, with 3 min between challenges.” left out, “application. […]” for “application.”

Where [13] appears, read: 100 μM neonicotinoid, GABA at 1 mM.
The mark [14] stands for this setting: 100 μM neonicotinoid, GABA at EC50 concentration.
Setting [15] is: initial 250 μM GABA response, eggs clamped at −60 mV, mean ± SEM.

Consider `CN/C(=N\[N+](=O)[O-])NCc1cnc(Cl)s1` [CLO, clothianidin], for which the “effect on responses induced by GABA” value in experiment [1] (setting [13]), in experiment [1] (setting [14]), in [2] (GABA at 1 mM) and in [2] (GABA at EC50 concentration) was “no antagonistic actions” throughout. The activity at 100 µM in experiment [1] was 100%. Also, the “% of GABA Response with 100 μM neonicotinoid” value (“% of GABA Response” below) in experiment [2] (GABA at EC50) is given as 100%.
`N#Cc1nn(-c2c(Cl)cc(C(F)(F)F)cc2Cl)c(N)c1[S+]([O-])C(F)(F)F` (stereo not shown) [Fipronil, fipronil]: the figures for the IC50 in [3], in experiment [4] and in [5] were 0.64 ± 0.15 µM, 0.18 ± 0.06 µM and 0.72 ± 0.19 µM, respectively.
Turning to `NCCCC(=O)O` [GABA, γ-aminobutyric acid], the “Imax (maximum amplitude)” value in [6] (setting [15]) was 1.6 ± 0.6 μA; in [7] (setting [15]), 1.4 ± 1.3 μA; in experiment [8] (setting [15]), 1.4 ± 1.5 μA. The results for the half-maximal effective concentration (EC50) in experiment [6] (mean ± SEM of 4-5 oocytes), in experiment [7] (mean ± SEM of 4-5 oocytes) and in experiment [8] (mean ± SEM of 4-5 oocytes) were 23 ± 1.7 µM, 51 ± 9.2 µM and 28 ± 5.4 µM, respectively. The “GABA nH (hill coefficient)” value in experiment [6] (mean ± SEM of 4-5 oocytes) is 1.6 ± 0.1; in [7] (mean ± SEM of 4-5 oocytes), 2.0 ± 0.3; in experiment [8] (mean ± SEM of 4-5 oocytes), 1.0 ± 0.1.
As for `O=[N+]([O-])NC1=NCCN1Cc1ccc(Cl)nc1` [IMI, imidacloprid], the “effect on responses induced by GABA” value in [1] (setting [13]), in experiment [1] (setting [14]), in experiment [2] (GABA at 1 mM) and in experiment [2] (GABA at EC50 concentration) was “no detectable effect” throughout. Further, the activity at 100 µM in experiment [1] (GABA at EC50, 100 μM neonicotinoid) was found to be 100%. For the same molecule, the “% of GABA Response” value in experiment [2] (GABA at EC50) came to 100%. In addition, the “action on RDL” value in [9] and in [10] was “acted as an antagonist” in each case. Also, the “effect on GABA-induced responses” value in experiment [11] is recorded as “reduce GABA-induced responses”.
Regarding `N#C/N=C1\SCCN1Cc1ccc(Cl)nc1` [THI, thiacloprid], the “% of GABA Response” value in [2] (GABA at EC50, 100 µM) is recorded as 55 ± 7%; in experiment [2] (GABA at EC50, listed as thiacloprid, 100 µM), 55%; in [12] (GABA at EC50), 62 ± 2%; in experiment [12] (GABA at EC50, listed as thiacloprid) it was 62%.

A word on the IC50: it is the concentration that inhibits the measured activity by half. As usually defined, the EC50 is the concentration at which the effect is half-maximal.
